Measurements reported in ChEMBL document CHEMBL1129456, “Synthesis and evaluation of two positron-labeled nitric oxide synthase inhibitors, S-[11C]methylisothiourea and S-(2-[18F]fluoroethyl)isothiourea, as potential positron emission tomography tracers” (J Med Chem, 1996).

Tests used:
[1] = target: T1, Nitric oxide synthase 3 (Homo sapiens, UniProt P29474); assay: The compound was evaluated for the inhibitory potencies using human Endothelial nitric oxide synthase
T1 sequence (P29474 whole entry): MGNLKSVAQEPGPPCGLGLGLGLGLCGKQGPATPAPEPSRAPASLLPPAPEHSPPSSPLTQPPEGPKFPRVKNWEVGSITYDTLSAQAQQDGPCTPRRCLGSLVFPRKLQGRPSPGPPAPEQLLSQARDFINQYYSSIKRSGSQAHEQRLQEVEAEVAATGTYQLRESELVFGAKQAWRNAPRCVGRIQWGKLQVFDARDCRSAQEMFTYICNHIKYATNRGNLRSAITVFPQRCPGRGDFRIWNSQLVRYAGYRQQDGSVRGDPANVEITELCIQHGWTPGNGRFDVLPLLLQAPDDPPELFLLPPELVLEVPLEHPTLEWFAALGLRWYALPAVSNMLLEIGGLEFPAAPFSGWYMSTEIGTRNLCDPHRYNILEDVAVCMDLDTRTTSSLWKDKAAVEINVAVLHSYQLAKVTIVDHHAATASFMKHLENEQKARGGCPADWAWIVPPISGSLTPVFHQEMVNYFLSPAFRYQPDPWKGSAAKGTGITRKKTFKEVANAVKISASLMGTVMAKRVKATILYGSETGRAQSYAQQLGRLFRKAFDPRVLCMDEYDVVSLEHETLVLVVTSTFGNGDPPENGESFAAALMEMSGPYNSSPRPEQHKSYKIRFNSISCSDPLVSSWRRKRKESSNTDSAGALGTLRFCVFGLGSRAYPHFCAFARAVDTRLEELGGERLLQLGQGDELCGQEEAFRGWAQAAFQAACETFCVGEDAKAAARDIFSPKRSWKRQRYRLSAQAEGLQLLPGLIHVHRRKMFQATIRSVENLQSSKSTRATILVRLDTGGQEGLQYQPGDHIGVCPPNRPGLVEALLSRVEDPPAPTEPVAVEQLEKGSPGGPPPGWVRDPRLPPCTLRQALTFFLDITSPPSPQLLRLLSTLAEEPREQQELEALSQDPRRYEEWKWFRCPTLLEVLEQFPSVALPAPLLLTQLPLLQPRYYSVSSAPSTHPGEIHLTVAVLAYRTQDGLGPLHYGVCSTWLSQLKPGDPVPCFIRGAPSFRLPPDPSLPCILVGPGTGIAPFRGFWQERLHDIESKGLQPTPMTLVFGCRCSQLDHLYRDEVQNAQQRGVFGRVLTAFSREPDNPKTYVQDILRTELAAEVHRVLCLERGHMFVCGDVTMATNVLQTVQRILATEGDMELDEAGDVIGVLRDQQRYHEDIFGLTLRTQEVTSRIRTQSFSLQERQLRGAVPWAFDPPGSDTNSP

[2] = organism: Rattus norvegicus; assay: Maximum enzyme concentration from lipopolysaccharide treated rat liver.; format: functional
[3] = target: T2, Nitric oxide synthase, inducible (Mus musculus, UniProt P29477); assay: Binding affinity against mouse Inducible nitric oxide synthase (iNOS)
T2 sequence (P29477 whole entry): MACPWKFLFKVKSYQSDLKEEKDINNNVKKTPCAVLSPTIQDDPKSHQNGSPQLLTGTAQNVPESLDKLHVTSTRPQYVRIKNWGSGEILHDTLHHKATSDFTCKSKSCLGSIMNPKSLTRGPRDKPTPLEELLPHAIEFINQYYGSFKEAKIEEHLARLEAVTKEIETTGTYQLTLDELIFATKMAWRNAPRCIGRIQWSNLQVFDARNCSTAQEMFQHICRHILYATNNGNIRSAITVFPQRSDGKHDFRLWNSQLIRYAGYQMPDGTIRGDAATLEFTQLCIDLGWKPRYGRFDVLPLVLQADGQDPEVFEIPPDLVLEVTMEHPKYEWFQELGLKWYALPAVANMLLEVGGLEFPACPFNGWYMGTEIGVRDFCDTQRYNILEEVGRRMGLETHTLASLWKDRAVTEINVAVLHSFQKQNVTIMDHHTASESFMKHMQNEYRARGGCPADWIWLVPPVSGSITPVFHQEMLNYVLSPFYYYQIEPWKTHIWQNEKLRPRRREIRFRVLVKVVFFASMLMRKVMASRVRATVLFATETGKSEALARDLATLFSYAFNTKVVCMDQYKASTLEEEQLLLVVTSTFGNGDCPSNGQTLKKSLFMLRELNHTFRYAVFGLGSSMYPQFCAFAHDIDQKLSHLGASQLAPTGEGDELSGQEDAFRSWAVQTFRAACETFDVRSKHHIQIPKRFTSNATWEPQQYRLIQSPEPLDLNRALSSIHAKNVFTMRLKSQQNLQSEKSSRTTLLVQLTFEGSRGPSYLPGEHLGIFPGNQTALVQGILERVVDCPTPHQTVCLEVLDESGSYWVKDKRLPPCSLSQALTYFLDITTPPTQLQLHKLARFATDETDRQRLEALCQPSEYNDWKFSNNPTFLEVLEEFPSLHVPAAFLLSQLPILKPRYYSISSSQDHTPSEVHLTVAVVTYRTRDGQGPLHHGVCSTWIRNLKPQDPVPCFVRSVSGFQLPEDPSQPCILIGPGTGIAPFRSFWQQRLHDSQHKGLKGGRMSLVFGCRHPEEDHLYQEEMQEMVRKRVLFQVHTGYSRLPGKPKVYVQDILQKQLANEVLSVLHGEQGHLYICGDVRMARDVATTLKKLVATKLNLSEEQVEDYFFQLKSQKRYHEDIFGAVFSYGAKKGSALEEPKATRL

[4] = target: Nitric oxide synthase, inducible (Homo sapiens, UniProt P35228); assay: The compound was evaluated for the inhibitory potencies using human Inducible nitric oxide synthase (hiNOS)
Nitric oxide synthase, inducible (Homo sapiens, UniProt P35228), sequence (P35228 whole entry): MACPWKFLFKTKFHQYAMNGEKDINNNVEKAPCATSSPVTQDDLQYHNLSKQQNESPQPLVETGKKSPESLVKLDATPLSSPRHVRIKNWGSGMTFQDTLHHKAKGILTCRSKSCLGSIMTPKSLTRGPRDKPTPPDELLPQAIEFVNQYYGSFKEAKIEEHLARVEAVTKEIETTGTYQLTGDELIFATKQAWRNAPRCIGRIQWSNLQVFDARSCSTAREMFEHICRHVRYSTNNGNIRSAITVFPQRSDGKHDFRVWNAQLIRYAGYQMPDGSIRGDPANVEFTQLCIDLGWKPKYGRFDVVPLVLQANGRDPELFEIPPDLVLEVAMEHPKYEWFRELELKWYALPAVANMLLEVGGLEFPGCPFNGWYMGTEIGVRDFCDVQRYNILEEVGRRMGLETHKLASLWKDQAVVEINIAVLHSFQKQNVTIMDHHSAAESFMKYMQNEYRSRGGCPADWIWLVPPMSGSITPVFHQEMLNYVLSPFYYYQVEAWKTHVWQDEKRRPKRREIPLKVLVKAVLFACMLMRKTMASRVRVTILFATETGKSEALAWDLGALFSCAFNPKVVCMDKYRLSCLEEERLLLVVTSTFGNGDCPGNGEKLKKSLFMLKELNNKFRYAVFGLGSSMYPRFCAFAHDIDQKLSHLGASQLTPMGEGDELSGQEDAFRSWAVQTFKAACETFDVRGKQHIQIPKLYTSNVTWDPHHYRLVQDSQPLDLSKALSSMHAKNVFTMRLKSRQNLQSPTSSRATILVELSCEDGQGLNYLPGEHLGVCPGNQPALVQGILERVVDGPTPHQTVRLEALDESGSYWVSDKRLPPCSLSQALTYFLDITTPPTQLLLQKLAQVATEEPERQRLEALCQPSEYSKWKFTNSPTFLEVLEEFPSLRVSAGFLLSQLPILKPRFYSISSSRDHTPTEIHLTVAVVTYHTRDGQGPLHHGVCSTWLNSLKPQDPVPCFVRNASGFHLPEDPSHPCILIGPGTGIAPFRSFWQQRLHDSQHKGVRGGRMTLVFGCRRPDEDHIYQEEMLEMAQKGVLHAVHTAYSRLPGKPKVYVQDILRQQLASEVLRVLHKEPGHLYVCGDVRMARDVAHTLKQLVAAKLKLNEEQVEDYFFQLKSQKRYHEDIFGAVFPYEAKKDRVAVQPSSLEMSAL

- IC50 [1]: 1300 nM
- Ki [3]: 5.2 nM
- IC50 [4]: 160 nM
SMILES: CCSC(=N)N [ETHYLISOTHIOUREA]
- Bmax [2]: 85 nM
